Data on 14 molecules can be found in patent US11345710B2, “Imidazo[1,2-b]pyrimido[4,5-d]pyridazin-5(6H)-ones and the use thereof” (IMPACT THERAPEUTICS (SHANGHAI), INC, priority 2017, dated 2022).

As usually defined, the IC50 is the concentration that gives 50% inhibition.

Where two headings read alike, the source gives them in different places.

The subject of one assay is LoVo cells. The experiment in a line: MTT based cell viability assay on LoVo cells. The settings on record: Homo sapiens, 72 h, read-out: IC50, growth inhibition on LoVo cells. The procedure: Determination of the Cell Growth Inhibiting Activity of 6-(2,6-dichlorophenyl)-2-((4-(4-methylpiperazin-1-yl)phenyl)amino)imidazo[1,2-b]pyrimido[4,5-d]pyridazin-5(6H)-one and Analogs Thereof on LoVo Cells Using a MTT Based Cell Viability Assay
The thawed LoVo cells were cultured and passaged to the third generation, and the growth state was good and the confluence was about 90%, which began to be used in the experiment. The LoVo cells were digested with trypsin, centrifuged at 800 rpm for 5 min, the supernatant was discarded, resuspended with fresh culture medium, and counted. 6000 Cells are seeded to each well of a 96-well cell culture plate. The cells were incubated at 37° C. in a 5% CO2 cell culture incubator overnight. The tested sample (including the tested compound and the reference compound AZD1775) was diluted continuously to 8 concentrations (the last concentration was negative control of DMSO) with a 1:3 and 1:10 dilution in DMSO respectively: 10 μM, 3.3 μM, 1 μM, 0.33 μM, 0.1 μM, 0.033 μM, 0.01 μM, 0 μM (the final concentration of DMSO was 1%). 5 μL of each concentration was added to 120 μL of culture medium (25 times diluted), and the mixture was shaken well. The overnight cells were taken and the culture medium was removed, 195 μL of fresh culture medium was added to each well, and 5 μL of diluted culture medium containing the corresponding concentration of the tested sample was added respectively, and the culture plate was then placed in the 5% CO2 cell culture incubator at 37° C. for 3 d. After removing the original solution and adding 100 μL of fresh serum-free DMEM culture medium containing MTT (0.5 mg/mL) per well, the culture was continued. The original solution was removed after 4 hrs and 100 μl DMSO was added to each well. The 96-well cell culture plates were shaken away from light for 10 min and readed in a multifunctional reader at 552/630/690 nm to give absorption values (OD values). The data were analyzed using a graphic software (Graph Pad Prism 5.0) and the inhibitory activity of the compound on cell proliferation was plotted in terms of cell survival and compound concentration. The IC50 values were fitted by the S-shaped dose-response curve equation as follows: Y=100/(1+10^(Log C−Log IC50)), where C was the concentration of testing compounds.

For another assay, the target named is Wee1 kinase (h) (Homo sapiens, UniProt P30291). The experiment in a line: Wee1 kinase (h) detection method, [γ-33P]-ATP filter assay. In kind it is biochemical. The settings on record: 10 μM ATP, 40 minutes at room temperature. How it is done: Wee1 kinase (h) was incubated with 20 mM Tris/HCl pH 8.5, 0.2 mM EDTA, 500 μM […], 10 mM MgAcetate and 10 μM [γ-^33P]-ATP. Then the stock solution of all compounds under test with 50× concentration in 100% DMSO was added to make the final concentration of 1/0.1/0.01 μM, and then mixed the mixture well. The reaction was initiated by the addition of the Mg/ATP mix. After incubation for 40 minutes at room temperature, the reaction was stopped by the addition of phosphoric acid to a concentration of 0.5%. 10 μL of the reaction liquor was then spotted onto a P30 filtermat and washed four times in 0.425% phosphoric acid and once in methanol prior to drying and scintillation counting. Each compound sample was duplicated in duplicate. The negative control was lack of all the components of Wee1 enzyme, and the positive was addition of 30% phosphoric acid to terminate the reaction. The Wee1 inhibitor AZD1775 was detected at 10/0.01 μM at the same experiment condition.
Sequence of Wee1 kinase (h) (P30291 whole entry): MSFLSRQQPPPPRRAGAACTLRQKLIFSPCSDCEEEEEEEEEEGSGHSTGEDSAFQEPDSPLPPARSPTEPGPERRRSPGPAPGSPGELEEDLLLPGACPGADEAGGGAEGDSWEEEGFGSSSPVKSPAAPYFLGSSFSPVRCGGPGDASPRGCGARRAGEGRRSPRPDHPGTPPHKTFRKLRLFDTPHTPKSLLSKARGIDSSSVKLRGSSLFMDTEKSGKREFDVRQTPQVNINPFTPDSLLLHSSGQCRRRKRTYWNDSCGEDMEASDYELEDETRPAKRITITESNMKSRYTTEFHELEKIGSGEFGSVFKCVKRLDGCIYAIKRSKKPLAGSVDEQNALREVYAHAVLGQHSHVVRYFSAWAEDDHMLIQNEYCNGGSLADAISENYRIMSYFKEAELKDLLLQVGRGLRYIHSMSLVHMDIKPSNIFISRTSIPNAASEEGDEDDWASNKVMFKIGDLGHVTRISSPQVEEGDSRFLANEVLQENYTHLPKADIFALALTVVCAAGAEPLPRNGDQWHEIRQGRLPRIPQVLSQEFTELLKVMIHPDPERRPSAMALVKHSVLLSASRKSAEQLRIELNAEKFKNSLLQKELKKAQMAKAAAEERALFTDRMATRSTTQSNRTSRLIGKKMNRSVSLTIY

For a further assay, the system named is NCI-H1299 cells. The experiment in a line: MTT based cell viability assay on NCI-H1299 cells. Conditions: Homo sapiens, read-out: IC50, growth inhibition on NCI-H1299 cells. The procedure:
Determination of the Cell Growth Inhibiting Activity of 6-(2,6-dichlorophenyl)-2-((4-(4-methylpiperazin-1-yl)phenyl)amino)imidazo[1,2-b]pyrimido[4,5-d]pyridazin-5(6H)-one and Analogs on NCI-H1299 Cells Using a MTT Based Cell Viability Assay
The thawed NCI-H1299 cells were cultured and passaged to the third generation, and the growth state was good and the confluence was about 90%, which began to be used in the experiment. The NCI-H1299 cells were digested with trypsin, centrifuged at 800 rpm for 5 min, the supernatant was discarded, resuspended with fresh culture medium, and counted. 1000 Cells are seeded to each well of a 96-well plate. The cells are incubated at 37° C. in a 5% CO2 cell culture incubator overnight. The tested sample (including the tested compound and the reference compound AZD1775) was diluted continuously to 8 concentrations (the last concentration was negative control of DMSO) with a 1:3 and 1:10 dilution in DMSO respectively: 10 μM, 3.3 μM, 1 μM, 0.33 μM, 0.1 μM, 0.033 μM, 0.01 μM, 0 μM (the final concentration of DMSO was 1%). 5 μL of each concentration was added to 120 μL of culture medium (25 times diluted), and the mixture was shaken well. The overnight cells were taken and the culture medium was removed, 195 μL of fresh culture medium was added to each well, and 5 μL of diluted culture medium containing the corresponding concentration of the tested sample was added respectively, and the culture plate was then placed in the 5% CO2 cell culture incubator at 37° C. for 3 d. After removing the original solution and adding 100 μL of fresh serum-free DMEM culture medium containing MTT (0.5 mg/mL) per well, the culture was continued. The original solution was removed after 4 hrs and 100 μl DMSO was added to each well. The 96-well cell culture plates were shaken away from light for 10 min and readed in a multifunctional reader at 552/630/690 nm to give absorption values (OD values). The data were analyzed using a graphic software (Graph Pad Prism 5.0) and the inhibitory activity of the compound on cell proliferation was plotted in terms of cell survival and compound concentration. The IC50 values were fitted by the S-shaped dose-response curve equation as follows: Y=100/(1+10^(Log C−Log IC50)), where C was the concentration of testing compounds.

Where [1] appears, read: 72 h, NCI-H1299 cells, 3 d, MTT.

Turning to `Cc1cc(Nc2ncc3c(=O)n(-c4c(C)cccc4Cl)n4ccnc4c3n2)cc(F)c1N1CCN(C)CC1` [Example 54, 6-(2-chloro-6-methylphenyl)-2-((3-fluoro-5-methyl-4-(4-methylpiperazin-1-yl)phenyl)amino)imidazo[1,2-b]pyrimido[4,5-d]pyridazin-5(6H)-one], the IC50 in the assay with LoVo cells (LoVo cells, 3 d, MTT) was found to be 637 nM; in the assay with NCI-H1299 cells (setting [1]), 419 nM. Also, the “Inh. (%) of Wee1 kinase” value at Wee1 kinase (h) (C 1 μm) is 91%.

For `Cc1cc(Nc2ncc3c(=O)n(-c4c(F)cccc4Br)n4ccnc4c3n2)ccc1N1CCC(N(C)C)CC1` [Example 45, 6-(2-bromo-6-fluorophenyl)-2-((3-methyl-4-(4-(dimethylamino)piperidin-1-yl)phenyl)amino)imidazo[1,2-b]pyrimido[4,5-d]pyridazin-5(6H)-one], the IC50 in the assay with LoVo cells (LoVo cells, 3 d, MTT) stood at 333 nM; in the assay with NCI-H1299 cells (setting [1]), 270 nM. In addition, the “Inh. (%) of Wee1 kinase” value on Wee1 kinase (h) (C 0.01 μm) is given as 12%.

On to `Cc1cnc2c3nc(Nc4ccc(N5CCN(C)CC5)c(Cl)c4)ncc3c(=O)n(-c3c(Cl)cccc3Cl)n12` [Example 56, 6-(2,6-dichlorophenyl)-2-((3-chloro-4-(4-methylpiperazin-1-yl)phenyl)amino)-8-methylimidazo[1,2-b]pyrimido[4,5-d]pyridazin-5(6H)-one], for which the IC50 with LoVo cells (LoVo cells, 3 d, MTT) was 434 nM; in the assay with NCI-H1299 cells (setting [1]), 540 nM. Moreover, the “Inh. (%) of Wee1 kinase” value at Wee1 kinase (h) (C 1 μm) worked out at 95%.

Regarding `Cc1cc(Nc2ncc3c(=O)n(-c4c(Cl)cccc4Cl)n4ccnc4c3n2)ccc1N1C[C@@H](C)N(C(C)C)[C@@H](C)C1` [Example 34, 6-(2,6-dichlorophenyl)-2-((3-methyl-4-((3S,5R)-4-isopropyl-3,5-dimethylpiperazin-1-yl)phenyl)amino)imidazo[1,2-b]pyrimido[4,5-d]pyridazin-5(6H)-one], the IC50 in the assay on LoVo cells (LoVo) amounted to 236 nM; in the assay with NCI-H1299 cells (NCI-H1299, 72 h), 219 nM. The “Inh. (%) of Wee1 kinase” value at Wee1 kinase (h) (C 0.01 μm) is given as 21%.

For `Cc1cc(Nc2ncc3c(=O)n(-c4c(Cl)cccc4Br)n4ccnc4c3n2)cc(F)c1N1CCC(N(C)C)CC1` [Example 50, 6-(2-bromo-6-chlorophenyl)-2-((3-fluoro-5-methyl-4-(4-(dimethylamino)piperidin-1-yl)phenyl)amino)imidazo[1,2-b]pyrimido[4,5-d]pyridazin-5(6H)-one], the IC50 in the assay on LoVo cells (LoVo cells, 3 d, MTT) was determined as 324 nM; in the assay with NCI-H1299 cells (setting [1]), 501 nM. Also, the “Inh. (%) of Wee1 kinase” value at Wee1 kinase (h) (C 1 μm) is given as 94%.

Turning to `C[C@@H]1CN(c2ccc(Nc3ncc4c(=O)n(-c5c(Cl)cccc5Cl)n5ccnc5c4n3)cc2)C[C@H](C)N1C` [Example 30, 6-(2,6-dichlorophenyl)-2-((4-((3S,5R)-3,4,5-trimethylpiperazin-1-yl)phenyl)amino)imidazo[1,2-b]pyrimido[4,5-d]pyridazin-5(6H)-one], the IC50 was determined as 779 nM with LoVo cells (LoVo) and 508 nM with NCI-H1299 cells (NCI-H1299, 72 h).

With `Cc1cc(Nc2ncc3c(=O)n(-c4c(F)cccc4F)n4ccnc4c3n2)cc(C)c1N1CCN(C)CC1` [Example 13, 6-(2,6-difluorophenyl)-2-((3,5-dimethyl-4-(4-methylpiperazin-1-yl)phenyl)amino)imidazo[1,2-b]pyrimido[4,5-d]pyridazin-5(6H)-one], the half-inhibitory concentration (IC50) in the assay on LoVo cells (LoVo cells, 3 d, MTT) turned out to be 488 nM; with NCI-H1299 cells (setting [1]), 738 nM. At Wee1 kinase (h) (C 1 μm), the “Inh. (%) of Wee1 kinase” value was found to be 85%.

Take `Cc1cc(Nc2ncc3c(=O)n(-c4c(F)cccc4Cl)n4ccnc4c3n2)cc(Cl)c1N1CCN(C)CC1` [Example 23, 6-(2-chloro-6-fluorophenyl)-2-((3-chloro-5-methyl-4-(4-methylpiperazin-1-yl)phenyl)amino)imidazo[1,2-b]pyrimido[4,5-d]pyridazin-5(6H)-one]: the IC50 in the assay with LoVo cells (LoVo cells, 3 d, MTT) is 195 nM; in the assay with NCI-H1299 cells (setting [1]), 528 nM. In addition, at Wee1 kinase (h) (C 1 μm), the “Inh. (%) of Wee1 kinase” value is given as 91%.

With `C[C@@H]1CN(c2ccc(Nc3ncc4c(=O)n(-c5c(Cl)cccc5Cl)n5ccnc5c4n3)cc2Cl)C[C@H](C)N1C` [Example 32, 6-(2,6-dichlorophenyl)-2-((3-chloro-4-((3S,5R)-3,4,5-trimethylpiperazin-1-yl)phenyl)amino)imidazo[1,2-b]pyrimido[4,5-d]pyridazin-5(6H)-one], the IC50 was determined as 679 nM in the assay on LoVo cells (LoVo) and 515 nM in the assay with NCI-H1299 cells (NCI-H1299, 72 h).

In the case of `CCc1cn2c(n1)c1nc(Nc3ccc(N4CCN(C)CC4)c(C)c3)ncc1c(=O)n2-c1c(Cl)cccc1Cl` [Example 60, 6-(2,6-dichlorophenyl)-2-((3-methyl-4-(4-methylpiperazin-1-yl)phenyl)amino)-9-ethylimidazo[1,2-b]pyrimido[4,5-d]pyridazin-5(6H)-one], the IC50 in the assay with LoVo cells (LoVo cells, 3 d, MTT) worked out at 325 nM; in the assay with NCI-H1299 cells (setting [1]), 161 nM.

In the case of `Cc1cc(Nc2ncc3c(=O)n(-c4c(F)cccc4Cl)n4ccnc4c3n2)ccc1N1C[C@@H](C)N(C)[C@@H](C)C1` [Example 24, 6-(2-chloro-6-fluorophenyl)-2-((3-methyl-4-((3S,5R)-3,4,5-trimethylpiperazin-1-yl)phenyl)amino)imidazo[1,2-b]pyrimido[4,5-d]pyridazin-5(6H)-one], the IC50 in the assay with LoVo cells (LoVo cells, 3 d, MTT) was 359 nM; in the assay on NCI-H1299 cells (setting [1]), 328 nM.

In the case of `C[C@@H]1CN(c2ccc(Nc3ncc4c(=O)n(-c5c(Cl)cccc5Cl)n5ccnc5c4n3)cc2F)C[C@H](C)N1C` [Example 31, 6-(2,6-dichlorophenyl)-2-((3-fluoro-4-((3S,5R)-3,4,5-trimethylpiperazin-1-yl)phenyl)amino)imidazo[1,2-b]pyrimido[4,5-d]pyridazin-5(6H)-one], the IC50 in the assay with LoVo cells (LoVo) was 809 nM; in the assay on NCI-H1299 cells (NCI-H1299, 72 h), 672 nM.

For `Cc1cc(Nc2ncc3c(=O)n(-c4c(Cl)cccc4Cl)n4ccnc4c3n2)ccc1C1CCN(C)CC1` [Example 41, 6-(2,6-dichlorophenyl)-2-((3-methyl-4-(1-methylpiperidin-4-yl)phenyl)amino)imidazo[1,2-b]pyrimido[4,5-d]pyridazin-5(6H)-one], the IC50 in the assay on LoVo cells (LoVo) amounted to 212 nM; in the assay on NCI-H1299 cells (NCI-H1299, 72 h), 184 nM.

Regarding `Cc1cc(Nc2ncc3c(=O)n(-c4c(Cl)cccc4Cl)n4ccnc4c3n2)ccc1N1C[C@@H](C)N(C)[C@@H](C)C1` [Example 33, 6-(2,6-dichlorophenyl)-2-((3-methyl-4-((3S,5R)-3,4,5-trimethylpiperazin-1-yl)phenyl)amino)imidazo[1,2-b]pyrimido[4,5-d]pyridazin-5(6H)-one], the IC50 worked out at 394 nM in the assay with LoVo cells (LoVo) and 237 nM in the assay on NCI-H1299 cells (NCI-H1299, 72 h).
